Consider 15 compounds from ChEMBL document CHEMBL1201862, “PubChem BioAssay data set” (2004).

Among the test systems are DMS-114; KM-20L2; HOP-18; T47D; M14; TK-10; 786-0; LXFL 529.
What all share (assay): inhibition of tumour cell growth, NCI panel, 48 h

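Test compounds were applied to cells in 96-well plates for 48 hours at 5 doses. The concentration for 50% growth inhibition is given as GI50.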 Calls of active or inactive are those of the source. Cut-off read from the data, not from the text of the source: active = GI50 up to about 1.1 µM and inactive = higher.

Take `Cc1ccc2nc3c(C(=O)NCCN(C)C)cccc3cc2c1`: the GI50 in the experiment on DMS-114 was 1.53 µM (inactive); with KM-20L2, 0.75 µM (active); in the experiment on HOP-18, 1.46 µM (inactive).

Consider `SC1=NC2=C(CSC/C2=C\c2cccc(Br)c2)C(c2cccc(Br)c2)N1` (centres undefined), for which the GI50 with T47D was 25 µM (inactive); in the experiment on M14, 46.2 µM (inactive); with TK-10 it was > 100 µM (inactive); in the experiment with 786-0, 66.8 µM (inactive).

Consider `COC(=O)C(NC(=O)c1ccccc1)C(c1ccc(Cl)cc1)P(=O)(OC)OC` (centres undefined), for which the GI50 with LXFL 529, in the experiment with M14, in the experiment on TK-10 and in the experiment on KM-20L2 was > 100 µM (inactive) throughout.

For the compound `CCOC(=O)N1CCN(c2ccc3c(C)cc(C)nc3n2)CC1`, the GI50 in the experiment with T47D, in the experiment on M14, in the experiment with TK-10 and with 786-0 was > 100 µM (inactive) throughout.

Turning to `CC1OC1C(=O)C1(O)C(C)C(O)C23OC2(C(O)c2c(O)cccc2C3=O)C1O` (centres undefined) [CERVICARCIN], the figures for the GI50 in the experiment on DMS-114, with KM-20L2 and in the experiment on HOP-18 were 0.048 µM (active), 0.214 µM (active) and 0.0605 µM (active), respectively.

With `COc1ccc2c3c1O[C@H]1C[C@@H](O)C=C[C@@]31CCN(C)C2` [GALANTAMINE], the GI50 with DMS-114, in the experiment with KM-20L2 and with HOP-18 was > 150 µM (inactive) throughout.

As for `O=c1cc[nH]c(=O)[nH]1` [URACIL], the values for the GI50 in the experiment on DMS-114, with KM-20L2 and with HOP-18 were 553 µM (inactive), 426 µM (inactive) and > 1000 µM (inactive), respectively.

With `CC(=O)O[C@H]1CC[C@H]2[C@@H]3CC[C@H]4Nc5c(cnn5S(C)(=O)=O)C[C@]4(C)[C@H]3CC[C@]12C`, the values for the GI50 with T47D and in the experiment on M14 were 37 µM (inactive) and 91.4 µM (inactive), respectively.

For `COC(=O)Nc1nc2cc(C(=O)c3ccc[nH]3)ccc2[nH]1`, the GI50 in the experiment on T47D is 0.959 µM (active); in the experiment with M14 it was 0.571 µM (active); with TK-10, 1.67 µM (inactive); with 786-0, 1.69 µM (inactive).

For `CN1C2CCC1C(CO)C(=O)C2` (centres undefined), the GI50 with T47D was 21 µM (inactive); in the experiment with TK-10, 22.9 µM (inactive).

Consider `Cc1cc(=O)oc2cc(OCC(O)COC(C)C)ccc12` (centres undefined), for which the GI50 in the experiment on T47D, in the experiment on M14, in the experiment with TK-10 and with 786-0 was > 100 µM (inactive) in each case.

For the compound `CN1C2CC(=O)CC1[C@H](O)[C@@H]2O`, the GI50 with T47D, with M14 and with TK-10 was > 100 µM (inactive) throughout.

On to `[O-][S+]1c2ccccc2N=C(c2ccc3ccccc3c2)CC1c1ccccc1` (centres undefined), for which the GI50 in the experiment on LXFL 529 is 16.1 µM (inactive); in the experiment with M14 it was 47.2 µM (inactive); with TK-10, 22.8 µM (inactive); with KM-20L2, 18.7 µM (inactive).

On to `CC(C)C(/C=C/c1ccc(Cl)cc1)=N\NC(=O)N/N=C(/C=C/c1ccc(Cl)cc1)C(C)C`, for which the GI50 with T47D was 40.8 µM (inactive); with M14 it was 24.2 µM (inactive); in the experiment on TK-10, 25.3 µM (inactive); in the experiment with 786-0, 17.6 µM (inactive).

`COc1cc2c(cc1OC)C(=O)/C(=C/c1cc(OC)c(OC)c(OC)c1)C2`: the GI50 was 90.2 µM (inactive) with T47D and 96.6 µM (inactive) in the experiment on M14.
